Values of other authors as cited in patent publication US20110165150A1, “Isolated organ perfusion combination therapy of cancer” (Merck Patent GmbH, priority 2006, published 2011).

Tested on: integrin receptors αvβ3, αvβ1, αvβ6, αvβ8, αIIbβ3
Conditions: especially αvβ3 and/or αvβ5

- blocking the integrin receptors: efficacious in blocking
SMILES: CC(C)[C@H]1C(=O)N[C@@H](CCCN=C(N)N)C(=O)NCC(=O)N[C@@H](CC(=O)O)C(=O)N[C@H](Cc2ccccc2)C(=O)N1C [Cilengitide, cyclo-(Arg-Gly-Asp-DPhe-NMeVal)]
